The structures appear in SMILES notation.

The record followed here is patent publication US11535851B2, “Reagents for treatment of hepatitis B virus (HBV) infection and use thereof” (priority 2016, dated 2022).

What all share (assay type): in vivo
For assay [1], the system named is HBV genotype C. As to the kind of experiment: Serum HBeAg in HBV-infected PXB chimeric mouse model. Here is the method: (§1) The in vivo effect of the anti-HBV shmiR or shRNA-expressing AAV particles (as illustrated in FIG. 5) was determined in a PXB chimeric mouse model infected de novo with HBV inoculum. Inhibition of various HBV parameters was assessed: (i) expression of HBV viral transcripts, (ii) extracellular HbsAg, HBcAg and HBeAg, (iii) extracellular and intracellular HBV DNA, and (iv) formation of cccDNA.
(§2) Chimeric PXB mice (PXB-mice®) were obtained from PhoenixBio. All mice were housed individually at 23±5° C. and a humidity of 55±25% humidity, exposed to 12 hours-light/dark cycles and fed and watered ad libitum throughout the experiment. […] To determine baseline HBV infection, blood was taken from mice at days −28, −21, −14 and −7 (i.e., 0, 7, 14 and 21 days post inoculation, respectively), from which human albumin (h-Alb) concentration and serum concentrations of HBV DNA, HBsAg and HBeAg were determined. These permit detection of liver damage in test animals—no adverse reactions were detected.
(§3) Serum HBsAg and HBeAg concentrations were determined using ChemiLuminescence ImmunoAssay (CLIA) e.g., as developed by Abbott ([…]® SYSTEM). […]
(§4) Following administration of the treatment (day 0), animals were then incubated for a further 91 days. […] HBeAg levels were measured every other week through Day 70 and then weekly thereafter until the conclusion of the 91 day experiment.

Assay [2] has as its system HBV genotype C. As to the kind of experiment: Serum HBsAg in HBV-infected PXB chimeric mouse model. The note with it: PXB mice, 91 day study; FIG. 8. As for the experimental part: as §1, §2, §3, §4
Assay [3] relates to HBV viral transcripts. As to the kind of experiment: Liver HBV RNA levels by RT-QPCR in PXB chimeric mouse model. The conditions noted are these: FIG. 11.
Source text: After the completion of blood sampling on Day 91, all the surviving animals were kept under isoflurane anesthesia and sacrificed by cardiac puncture and exsanguination. Once sacrificed, whole livers were harvested from mice and weighed. A slice of liver of 3 to 5 mm in thickness was obtained from left lateral lobe and cut into cubes approximately 1 to 2 mm on a side. These liver cubes were transferred into a labelled tube and immersed in RNAlater® solution (Ambion, Thermo Fisher Scientific Inc., Waltham, Mass., USA) as quickly as possible. The liver samples were incubated in ≥5 volumes of RNAlater® overnight at 4° C. to allow the solution to penetrate the tissue. After the incubation, the RNAlater® solution was removed and the liver pieces were stored at −80° C. for subsequent quantification of the various hepatic HBV DNA and RNAs as well as expression levels of recombinant AAV derived shRNA or shmiR RNAs.
Using primer/probe sets that are located near each of the RNAi-induced cleavage sites, the levels of HBV RNA was assessed by RT-QPCR (FIG. 11).
Assay [4] concerns HBV genotype C. As to the kind of experiment: Serum HBV DNA in HBV-infected PXB chimeric mouse model. The conditions noted are these: treatment arm of daily ETV only; FIG. 7. Here is the method: as §1, §2
Remaining whole blood was centrifuged to separate serum for HBV DNA quantification, HbsAg, HBcAg and HBeAg analysis. […] Synthetic HBV DNA was used to determine the concentration of the HBV DNA standard which was then used in quantification of the serum HBV DNA level. […]

For assay [5], the system named is HBV genotype C. As to the kind of experiment: Intracellular (liver) HBV DNA by quantitative PCR in PXB chimeric mouse model. The note with it: entecavir or pegylated interferon alone; FIG. 12, left panel.
Assay [6] concerns HBV cccDNA. In words: Liver HBV cccDNA by real-time PCR in PXB chimeric mouse model. The conditions noted are these: ETV; FIG. 12, right panel. As for the experimental part: HBV-infected mice treated with saline served as the negative controls. […] For the anti-HBV ddRNAi treatment groups, ssAAV8-HBV-shRNAx3-v1, scAAV8-HBV-shRNAx3-v1 or ssAAV8-HBV-shmiRx3-v1 was administered once at a dose of 2×10E+13 vg/kg by a low pressure tail vein injection at Day 0. Co-treated animals started daily ETV at Day 1 or were dosed the first time with PEG-IFN on Day 4
After the completion of blood sampling on Day 91, all the surviving animals were kept under isoflurane anesthesia and sacrificed by cardiac puncture and exsanguination. Once sacrificed, whole livers were harvested from mice and weighed. A slice of liver of 3 to 5 mm in thickness was obtained from left lateral lobe and cut into cubes approximately 1 to 2 mm on a side. […] After the incubation, the RNAlater® solution was removed and the liver pieces were stored at −80° C. for subsequent quantification of the various hepatic HBV DNA and RNAs as well as expression levels of recombinant AAV derived shRNA or shmiR RNAs.
To determine the level of hepatic HBV DNA following treatment, HBV DNA was extracted from frozen RNAlater®-preserved liver tissue using the DNeasy® Blood & Tissue Kits (Qiagen K. K., Tokyo, Japan). The DNA was dissolved in 200 μL nuclease-free water, after which the concentration of the DNA solution was determined using BioPhotometer 6131 (Eppendorf Co., Ltd., Tokyo, Japan). […]

Turning to `C=C1[C@H](CO)[C@@H](O)C[C@@H]1n1cnc2c(=O)[nH]c(N)nc21` [entecavir], the “drop in HBeAg levels” value is 0.37 log in assay [1] (PXB mice, 91 day study, FIG. 9) and 0.37 log in assay [1] (entecavir only). The “drop in HBsAg levels” value in assay [2] is given as 0.46 log. The “reduction of HBV RNA levels / HBV transcripts” value in assay [3] (monotherapy, through 13 weeks of treatment, RT-QPCR) is about 50%. Moreover, the “HBV RNA levels (liver)” value in assay [3] (transcripts corresponding to shmiR-6, shmiR-15 and shmiR-12) is listed as “only modestly reduced”. In addition, in assay [4], the “drop in serum HBV DNA levels” value is recorded as 2.63 log. For the same molecule, the “drop in intracellular DNA levels” value in assay [5] worked out at 2 logs. Moreover, the “reduction of cccDNA” value in assay [6] was “slightly more than a one log reduction”.
